Measured values from patent US11339130B1 (Blade Therapeutics, Inc., priority 2016, dated 2022).
Structures can show the parent of a compound that is named as a salt.

Columns and labels:
Human Calpain 1/NS1 = target: T1, Human Calpain 1/NS1 (Homo sapiens, UniProt P07384); test: Calpain inhibition continuous fluorescence (FRET) assay, Human Calpain 1/NS1; format: biochemical; conditions: read-out: Human Calpain 1/NS1 IC50
T1 sequence (P07384 1-714): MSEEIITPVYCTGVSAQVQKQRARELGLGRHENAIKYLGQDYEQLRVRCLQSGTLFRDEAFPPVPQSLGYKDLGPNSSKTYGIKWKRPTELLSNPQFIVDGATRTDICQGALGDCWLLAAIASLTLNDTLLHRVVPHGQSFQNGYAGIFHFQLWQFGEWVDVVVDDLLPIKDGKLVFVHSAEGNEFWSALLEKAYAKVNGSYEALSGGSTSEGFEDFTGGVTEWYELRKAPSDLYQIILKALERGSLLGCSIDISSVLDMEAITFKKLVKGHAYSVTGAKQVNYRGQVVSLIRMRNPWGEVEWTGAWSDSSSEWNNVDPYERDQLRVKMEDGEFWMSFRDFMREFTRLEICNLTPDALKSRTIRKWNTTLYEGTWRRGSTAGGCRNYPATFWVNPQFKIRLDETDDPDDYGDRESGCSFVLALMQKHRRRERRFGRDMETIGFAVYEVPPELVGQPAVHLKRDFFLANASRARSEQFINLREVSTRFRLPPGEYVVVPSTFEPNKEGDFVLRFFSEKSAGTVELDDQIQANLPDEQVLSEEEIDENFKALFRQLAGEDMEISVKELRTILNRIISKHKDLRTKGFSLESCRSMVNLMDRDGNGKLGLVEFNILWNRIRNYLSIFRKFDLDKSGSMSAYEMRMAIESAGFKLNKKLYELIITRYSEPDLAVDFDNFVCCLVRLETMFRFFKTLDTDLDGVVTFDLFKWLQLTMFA
T1 sequence (P04632 1-268 partner): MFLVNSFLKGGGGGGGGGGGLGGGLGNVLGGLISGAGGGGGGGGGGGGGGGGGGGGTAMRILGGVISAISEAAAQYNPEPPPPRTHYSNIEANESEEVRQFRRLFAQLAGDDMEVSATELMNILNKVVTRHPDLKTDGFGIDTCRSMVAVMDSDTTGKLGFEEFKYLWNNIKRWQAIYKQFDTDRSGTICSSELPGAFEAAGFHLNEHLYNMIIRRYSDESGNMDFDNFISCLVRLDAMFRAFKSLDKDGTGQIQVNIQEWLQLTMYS
Summary of the method: (§1)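 Calpain activity is measured kinetically with a quenched FRET peptide in 50 mM Tris pH 7.5, 100 mM NaCl, 1 mM DTT, with CaCl2 triggering activation. Rates over 1-5 min are plotted against log inhibitor to obtain IC50 by 4-parameter logistic fitting.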

Human Calpain 2/NS1 = target: T2, Human Calpain 2/NS1 (Homo sapiens, UniProt P17655); test: Calpain inhibition continuous fluorescence (FRET) assay, Human Calpain 2/NS1; format: biochemical; conditions: read-out: Human Calpain 2/NS1 IC50
T2 sequence (P17655 1-700): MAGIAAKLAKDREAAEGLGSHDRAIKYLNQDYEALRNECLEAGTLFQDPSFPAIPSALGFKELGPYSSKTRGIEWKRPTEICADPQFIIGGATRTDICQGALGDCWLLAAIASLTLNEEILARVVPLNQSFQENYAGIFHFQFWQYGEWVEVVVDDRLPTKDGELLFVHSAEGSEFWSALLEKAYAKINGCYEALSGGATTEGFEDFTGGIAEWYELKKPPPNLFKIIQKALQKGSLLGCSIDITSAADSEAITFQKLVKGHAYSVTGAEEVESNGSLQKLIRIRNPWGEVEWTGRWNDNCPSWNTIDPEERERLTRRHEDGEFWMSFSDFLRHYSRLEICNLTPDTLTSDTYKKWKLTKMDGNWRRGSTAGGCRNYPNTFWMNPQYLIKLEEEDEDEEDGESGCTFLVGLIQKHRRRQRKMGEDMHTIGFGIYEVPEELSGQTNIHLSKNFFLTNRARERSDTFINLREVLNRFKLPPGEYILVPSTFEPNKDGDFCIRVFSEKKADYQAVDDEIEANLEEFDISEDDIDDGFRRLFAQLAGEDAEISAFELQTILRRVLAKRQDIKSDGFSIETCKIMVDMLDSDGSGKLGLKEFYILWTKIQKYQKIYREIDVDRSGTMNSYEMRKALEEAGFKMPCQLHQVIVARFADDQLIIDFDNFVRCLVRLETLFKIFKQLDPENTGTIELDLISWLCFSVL
T2 sequence (P04632 1-268 partner): T1 sequence (P04632 1-268 partner)
Summary of the method: as §1

Human Calpain 9/NS1 = target: T3, Human Calpain 9/NS1 (Homo sapiens, UniProt O14815); test: Calpain inhibition continuous fluorescence (FRET) assay, Human Calpain 9/NS1; format: biochemical; conditions: read-out: Human Calpain 9/NS1 IC50
T3 sequence (O14815 1-690): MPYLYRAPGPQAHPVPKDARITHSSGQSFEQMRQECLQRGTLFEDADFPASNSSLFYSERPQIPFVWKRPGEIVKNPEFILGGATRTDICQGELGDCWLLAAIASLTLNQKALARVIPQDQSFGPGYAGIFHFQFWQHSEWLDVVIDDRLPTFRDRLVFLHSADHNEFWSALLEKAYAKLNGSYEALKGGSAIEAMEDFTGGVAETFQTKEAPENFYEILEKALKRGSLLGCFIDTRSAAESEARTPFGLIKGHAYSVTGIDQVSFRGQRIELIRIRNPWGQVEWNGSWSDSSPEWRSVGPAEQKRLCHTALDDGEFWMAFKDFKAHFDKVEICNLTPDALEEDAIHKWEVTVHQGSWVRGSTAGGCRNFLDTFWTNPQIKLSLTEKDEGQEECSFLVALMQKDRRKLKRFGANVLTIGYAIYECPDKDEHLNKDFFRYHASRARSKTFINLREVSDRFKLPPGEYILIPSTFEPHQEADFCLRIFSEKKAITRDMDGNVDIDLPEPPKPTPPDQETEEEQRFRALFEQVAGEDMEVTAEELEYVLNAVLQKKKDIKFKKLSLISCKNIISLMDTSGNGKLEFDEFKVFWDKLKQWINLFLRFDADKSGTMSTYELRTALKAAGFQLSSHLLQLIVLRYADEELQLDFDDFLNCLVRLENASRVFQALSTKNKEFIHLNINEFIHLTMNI
T3 sequence (P04632 1-268 partner): T1 sequence (P04632 1-268 partner)
Summary of the method: as §1

[1] = tested on: Calpain activity in SH-SY5Y cells (SBDP-150); test: SH-SY5Y Spectrin western blot assay (SBDP-150 breakdown product, A23187-induced); format: cell-based; conditions: Homo sapiens; SH-SY5Y cells, A23187-induced SBDP-150, western blot; read-out: SH-SY5Y Spectrin IC50
[2] = tested on: Calpain activity in SH-SY5Y cells; test: SH-SY5Y + AMC fluorescence assay (Suc-LLVY-AMC substrate); format: cell-based; conditions: read-out: SH-SY5Y + AMC IC50

SMILES	IC50 (Human Calpain 1/NS1)	IC50 (Human Calpain 2/NS1)	IC50 (Human Calpain 9/NS1)	IC50 [1]	IC50 [2]
Cn1cc(C(=O)N[C@@H](Cc2c[nH]c3ccccc23)C(=O)C(N)=O)c(-c2ccccc2)n1 [Compound 423, (S)—N-(4-amino-1-(1H-indol-3-yl)-3,4-dioxobutan-2-yl)-1-methyl-3-phenyl-1H-pyrazole-4-carboxamide]	< 3 µM	< 3 µM	< 3 µM	< 10 µM	< 10 µM
Cn1cc(C(=O)NC(CC(F)(F)F)C(=O)C(N)=O)c(-c2ccccc2)n1 (stereo not drawn) [Compound 424, N-(5-amino-1,1,1-trifluoro-4,5-dioxopentan-3-yl)-1-methyl-3-phenyl-1H-pyrazole-4-carboxamide]	3 to 10 µM	< 3 µM	< 3 µM	10 to 25 µM	> 25 µM
Cc1cc(C(=O)NC(Cc2ccccc2)C(=O)C(N)=O)c(-n2cc3ccccc3n2)s1 (stereo not drawn) [Compound 428, N-(4-amino-3,4-dioxo-1-phenylbutan-2-yl)-2-(2H-indazol-2-yl)-5-methylthiophene-3-carboxamide]	< 3 µM	< 3 µM	< 3 µM	< 10 µM	> 25 µM
Cc1occ(C(=O)N[C@@H](Cc2ccccc2)C(=O)C(N)=O)c1-c1ccccc1 [Compound 430, (S)—N-(4-amino-3,4-dioxo-1-phenylbutan-2-yl)-5-methyl-4-phenylfuran-3-carboxamide]	< 3 µM	< 3 µM	< 3 µM	< 10 µM	< 10 µM
Cc1cc(C(=O)NC(Cc2ccccc2)C(=O)C(N)=O)n(-c2ccnc(C(C)C)n2)n1 (stereo not drawn) [Compound 431, N-(4-amino-3,4-dioxo-1-phenylbutan-2-yl)-1-(2-isopropylpyrimidin-4-yl)-3-methyl-1H-pyrazole-5-carboxamide]	< 3 µM	< 3 µM	< 3 µM	> 25 µM	< 10 µM
C#Cc1nccc(-n2nc(C)cc2C(=O)NC(Cc2ccccc2)C(=O)C(N)=O)n1 (stereo not drawn) [Compound 432, N-(4-amino-3,4-dioxo-1-phenylbutan-2-yl)-1-(2-ethynylpyrimidin-4-yl)-3-methyl-1H-pyrazole-5-carboxamide]	< 3 µM	< 3 µM	< 3 µM	< 10 µM	< 10 µM
C#Cc1nccc(-n2nc(C)cc2C(=O)N[C@@H](Cc2ccccc2)C(=O)CF)n1 [Compound 433, (S)-1-(2-ethynylpyrimidin-4-yl)-N-(4-fluoro-3-oxo-1-phenylbutan-2-yl)-3-methyl-1H-pyrazole-5-carboxamide]	3 to 10 µM	3 to 10 µM	> 10 µM	10 to 25 µM	> 25 µM
Cc1cc(C(=O)N[C@@H](Cc2ccccc2)C(=O)C(N)=O)nn1-c1ccnc(Cl)n1 [Compound 435, (S)—N-(4-amino-3,4-dioxo-1-phenylbutan-2-yl)-1-(2-chloropyrimidin-4-yl)-5-methyl-1H-pyrazole-3-carboxamide]	> 10 µM	3 to 10 µM	3 to 10 µM	> 25 µM	< 10 µM
COc1nccc(-n2nc(C)cc2C(=O)NC(Cc2ccccc2)C(=O)C(N)=O)n1 (stereo not drawn) [Compound 436, N-(4-amino-3,4-dioxo-1-phenylbutan-2-yl)-1-(2-methoxypyrimidin-4-yl)-3-methyl-1H-pyrazole-5-carboxamide]	< 3 µM	< 3 µM	< 3 µM	> 25 µM	< 10 µM

Now from value to molecule:

IC50 (Human Calpain 1/NS1)	IC50 (Human Calpain 2/NS1)	IC50 (Human Calpain 9/NS1)	IC50 [1]	IC50 [2]	SMILES
< 3 µM	< 3 µM	< 3 µM	> 25 µM	10 to 25 µM	Cc1cc(C(=O)NC(Cc2ccccc2)C(=O)C(N)=O)n(-c2ccnc(C#N)n2)n1 (stereo not drawn) [Compound 437, N-(4-amino-3,4-dioxo-1-phenylbutan-2-yl)-1-(2-cyanopyrimidin-4-yl)-3-methyl-1H-pyrazole-5-carboxamide]
< 3 µM	< 3 µM	< 3 µM	10 to 25 µM	10 to 25 µM	Cc1cc(C(=O)NC(Cc2ccccc2)C(=O)C(N)=O)n(-c2cccc(COCc3ccccc3)c2)n1 (stereo not drawn) [Compound 438, N-(4-amino-3,4-dioxo-1-phenylbutan-2-yl)-1-(3-((benzyloxy)methyl)phenyl)-3-methyl-1H-pyrazole-5-carboxamide]
< 3 µM	< 3 µM	< 3 µM	< 10 µM	> 25 µM	Cc1cc(C(=O)NC(Cc2ccccc2)C(=O)C(N)=O)n(-c2ccc(Oc3ccccc3)cc2)n1 (stereo not drawn) [Compound 439, N-(4-Amino-3,4-dioxo-1-phenylbutan-2-yl)-3-methyl-1-(4-phenoxyphenyl)-1H-pyrazole-5-carboxamide]
< 3 µM	< 3 µM	< 3 µM	< 10 µM	> 25 µM	Cc1cc(C(=O)NC(Cc2ccccc2)C(=O)C(N)=O)n(-c2ccc(OC3CCOCC3)cc2)n1 (stereo not drawn) [Compound 440, N-(4-amino-3,4-dioxo-1-phenylbutan-2-yl)-3-methyl-1-(4-((tetrahydro-2H-pyran-4-yl)oxy)phenyl)-1H-pyrazole-5-carboxamide]
> 10 µM	> 10 µM	> 10 µM	> 25 µM	> 25 µM	CCN(CC)Cc1ccc(Oc2ccc(-n3nc(C)cc3C(=O)NC(Cc3ccccc3)C(=O)C(N)=O)cc2)cc1 (stereo not drawn) [Compound 441, N-(4-amino-3,4-dioxo-1-phenylbutan-2-yl)-1-(4-(4-((diethylamino)methyl)phenoxy)phenyl)-3-methyl-1H-pyrazole-5-carboxamide hydrochloride]
< 3 µM	< 3 µM	< 3 µM	10 to 25 µM	> 25 µM	Cc1cc(C(=O)NC(Cc2ccccc2)C(=O)C(N)=O)n(-c2ccc(CN3CCOCC3)cc2)n1 (stereo not drawn) [Compound 442, N-(4-amino-3,4-dioxo-1-phenylbutan-2-yl)-3-methyl-1-(4-(morpholinomethyl)phenyl)-1H-pyrazole-5-carboxamide]
